# Measured values: patent US20220304979A1, “METHODS OF REDUCING DISEASE FLARES” (Chinook Therapeutics, Inc., priority 2019, published 2022)
# Experiments:
# [1] = test system: primary human renal mesangial cells (HRMCs); assay: proliferation (BrdU) of mesangial cells stimulated with IgA-containing immune complexes; format: cell-based; conditions: immune complexes purified from three patients with IgA nephropathy
# Text: Primary human mesangial cells in a culture were stimulated with pathogenic galactose deficient (Gd)-IgA containing immune complexes isolated from human IgA nephropathy patients. […] Specifically, pathogenic IgA-containing immune complexes were isolated from serum from either IgA nephropathy patients or age, gender and ethnicity-matched healthy individuals. Frozen serum was purchased from BioIVT and IgA-containing immune complexes were purified using jacalin affinity chromatography. […] Purified IgA-containing immune complexes were concentrated using a 100K Amicon filtration unit and the amount of total IgA and galactose-deficient IgA (Gd-IgA) in the immune complexes was measured by ELISA (ThermoFisher and IBL America, respectively). […] See, e.g., Novak et. al., Kidney International, 67, pp. 504-516; 2005; Novak et. al., Nephrol. Dial. Transplant, 26, pp. 3451-3457; 2011; Liang et. al., Cell Physiol. Biochem., 36, pp. 1793-1808; 2015; Nguyen et. al., Clin. Kidney 1, 12 (2), pp, 232-238; 2019.
# [2] = test system: g-ddY mice; assay: albuminuria (UACR) in g-ddY mouse model of IgA nephropathy; format: in vivo; conditions: for albuminuria compared to baseline: approximately 5 days
# Text: The grouped ddY (g-ddY) mouse is a spontaneous model of early-onset IgA nephropathy characterized by IgA immune complex deposition in the mesangium of the kidney, leading to significant proteinuria, glomerular hypercellularity, mesangioproliferative glomerular lesions, glomerular sclerosis and reduced kidney function, all hallmarks of human IgA nephropathy (J Am Soc Nephrol 23: 1364-1374, 2012). Consistent with human IgA nephropathy, the mesangial IgA deposits in the g-ddY mouse are also accompanied by deposition of IgG and complement C3.
# [3] = test system: kidney tissue of g-ddY mice; assay: Ingenuity Pathway Analysis (IPA) canonical pathways of kidney RNA-seq, g-ddY mice; format: in vivo, mouse; conditions: 30 mg/kg/day
# [4] = patients with diabetic kidney disease (DKD); cited from earlier work
structure (smiles),measurement,setting,value
"CCCCN(CCCC)C(=O)CN1C[C@H](c2ccc3c(c2)OCO3)[C@@H](C(=O)O)[C@@H]1c1ccc(OC)cc1 [atrasentan, (2R,3R,4S)-4-(1,3-benzodioxol-5-yl)-1-[2-(dibutylamino)-2-oxoethyl]-2-(4-methoxyphenyl)pyrrolidine-3-carboxylic acid]",hyperproliferation of HRMCs induced by IgA containing immune complexes,[1],significantly attenuated the hyperproliferation
same,effect to reduce UACR from baseline compared to control group,[2]; 10 mg/kg/day,not significant
same,effect to reduce UACR from baseline compared to control group,"[2]; 20 mg/kg/day, P=0.0498, un-paired t-test",statistically significant compared to the control group
same,albuminuria compared to baseline,"[2]; 20 mg/kg/day, just failed statistical significance (P=0.0593)",reduced from baseline to a similar extent
same,effect to reduce UACR from baseline compared to control group,"[2]; 30 mg/kg/day, P=0.029",statistically significant compared to the control group
same,albuminuria compared to baseline,"[2]; 30 mg/kg/day, paired t-test","significantly (P=0.0002, paired two-sided t-test) reduced albuminuria from baseline"
same,signaling pathways by IPA analysis,[3],"reduced NF-κB signaling, IL-6 pathway signaling (e.g., STAT3), and PDGF signaling"
same,risk of renal events (doubling of serum creatinine or end-stage kidney disease),[4],significantly reducing the risk of renal events
